ChEMBL document CHEMBL5532655, “Discovery of (R)-4-(8-methoxy-2-methyl-1-(1-phenylethy)-1H-imidazo[4,5-c]quinnolin-7-yl)-3,5-dimethylisoxazole as a potent and selective BET inhibitor for treatment of acute myeloid leukemia (AML) guided by FEP calculation” (Eur J Med Chem, 2024)

Experiments:
MV4-11 [1] = assay: Induction of apoptosis in human MV4-11 cells assessed as early apoptotic cells at 1.25 uM incubated for 24 hrs by annexin V-FITC/PI staining based flow cytometric analysis (reference value: 0%); assay type: functional
MV4-11 [2] = assay: Induction of apoptosis in human MV4-11 cells assessed as early apoptotic cells at 0.625 uM incubated for 24 hrs by annexin V-FITC/PI staining based flow cytometric analysis (reference value: 0%); assay type: functional
MV4-11 [3] = assay: Induction of apoptosis in human MV4-11 cells assessed as viable cells at 0.625 uM incubated for 24 hrs by annexin V-FITC/PI staining based flow cytometric analysis (reference value: 97%); assay type: functional
MV4-11 [4] = assay: Induction of apoptosis in human MV4-11 cells assessed as viable cells at 1.25 uM incubated for 24 hrs by annexin V-FITC/PI staining based flow cytometric analysis (reference value: 97%); assay type: functional
MV4-11 [5] = assay: Induction of apoptosis in human MV4-11 cells assessed as viable cells at 2.5 uM incubated for 24 hrs by annexin V-FITC/PI staining based flow cytometric analysis (reference value: 97%); assay type: functional
MV4-11 [6] = assay: Induction of apoptosis in human MV4-11 cells assessed as viable cells at 5 uM incubated for 24 hrs by annexin V-FITC/PI staining based flow cytometric analysis (reference value: 97%); assay type: functional
MV4-11 [7] = assay: Induction of apoptosis in human MV4-11 cells assessed as viable cells at 10 uM incubated for 24 hrs by annexin V-FITC/PI staining based flow cytometric analysis (reference value: 97%); assay type: functional
MV4-11 [8] = assay: Induction of apoptosis in human MV4-11 cells assessed as early apoptotic cells at 2.5 uM incubated for 24 hrs by annexin V-FITC/PI staining based flow cytometric analysis (reference value: 0%); assay type: functional
MV4-11 [9] = assay: Induction of apoptosis in human MV4-11 cells assessed as early apoptotic cells at 5 uM incubated for 24 hrs by annexin V-FITC/PI staining based flow cytometric analysis (reference value: 0%); assay type: functional
MV4-11 [10] = assay: Induction of apoptosis in human MV4-11 cells assessed as early apoptotic cells at 10 uM incubated for 24 hrs by annexin V-FITC/PI staining based flow cytometric analysis (reference value: 0%); assay type: functional
MV4-11 [11] = assay: Induction of apoptosis in human MV4-11 cells assessed as late apoptotic cells at 0.625 uM incubated for 24 hrs by annexin V-FITC/PI staining based flow cytometric analysis (reference value: 0.04 %); assay type: functional
MV4-11 [12] = assay: Induction of apoptosis in human MV4-11 cells assessed as late apoptotic cells at 1.25 uM incubated for 24 hrs by annexin V-FITC/PI staining based flow cytometric analysis (reference value: 0.04 %); assay type: functional
MV4-11 [13] = assay: Induction of apoptosis in human MV4-11 cells assessed as late apoptotic cells at 2.5 uM incubated for 24 hrs by annexin V-FITC/PI staining based flow cytometric analysis (reference value: 0.04 %); assay type: functional
MV4-11 [14] = assay: Induction of apoptosis in human MV4-11 cells assessed as late apoptotic cells at 5 uM incubated for 24 hrs by annexin V-FITC/PI staining based flow cytometric analysis (reference value: 0.04 %); assay type: functional
MV4-11 [15] = assay: Induction of apoptosis in human MV4-11 cells assessed as late apoptotic cells at 10 uM incubated for 24 hrs by annexin V-FITC/PI staining based flow cytometric analysis (reference value: 0.04 %); assay type: functional
MV4-11 [16] = assay: Induction of apoptosis in human MV4-11 cells assessed as necrotic cells at 0.625 uM incubated for 24 hrs by annexin V-FITC/PI staining based flow cytometric analysis (reference value: 2.35 %); assay type: functional
MV4-11 [17] = assay: Induction of apoptosis in human MV4-11 cells assessed as necrotic cells at 1.25 uM incubated for 24 hrs by annexin V-FITC/PI staining based flow cytometric analysis (reference value: 2.35 %); assay type: functional
MV4-11 [18] = assay: Induction of apoptosis in human MV4-11 cells assessed as necrotic cells at 2.5 uM incubated for 24 hrs by annexin V-FITC/PI staining based flow cytometric analysis (reference value: 2.35 %); assay type: functional
MV4-11 [19] = assay: Induction of apoptosis in human MV4-11 cells assessed as necrotic cells at 5 uM incubated for 24 hrs by annexin V-FITC/PI staining based flow cytometric analysis (reference value: 2.35 %); assay type: functional
MV4-11 [20] = assay: Induction of apoptosis in human MV4-11 cells assessed as necrotic cells at 10 uM incubated for 24 hrs by annexin V-FITC/PI staining based flow cytometric analysis (reference value: 2.35 %); assay type: functional
MV4-11 [21] = assay: Induction of cell cycle arrest in human MV4-11 cells assessed as accumulation of cells at G0/G1 phase at 0.3125 uM incubated for 24 hrs by propidium iodide staining flow cytometric analysis (reference value: 34.97 %); assay type: functional
MV4-11 [22] = assay: Induction of cell cycle arrest in human MV4-11 cells assessed as accumulation of cells at G0/G1 phase at 0.625 uM incubated for 24 hrs by propidium iodide staining flow cytometric analysis (reference value: 34.97 %); assay type: functional
MV4-11 [23] = assay: Induction of cell cycle arrest in human MV4-11 cells assessed as accumulation of cells at G0/G1 phase at 1.25 uM incubated for 24 hrs by propidium iodide staining flow cytometric analysis (reference value: 34.97 %); assay type: functional
MV4-11 [24] = assay: Induction of cell cycle arrest in human MV4-11 cells assessed as accumulation of cells at G0/G1 phase at 2.5 uM incubated for 24 hrs by propidium iodide staining flow cytometric analysis (reference value: 34.97 %); assay type: functional
MV4-11 [25] = assay: Induction of cell cycle arrest in human MV4-11 cells assessed as accumulation of cells at G0/G1 phase at 5 uM incubated for 24 hrs by propidium iodide staining flow cytometric analysis (reference value: 34.97 %); assay type: functional
MV4-11 [26] = assay: Induction of cell cycle arrest in human MV4-11 cells assessed as accumulation of cells at G2/M phase at 0.3125 uM incubated for 24 hrs by propidium iodide staining flow cytometric analysis (reference value: 51.43 %); assay type: functional
MV4-11 [27] = assay: Induction of cell cycle arrest in human MV4-11 cells assessed as accumulation of cells at G2/M phase at 0.625 uM incubated for 24 hrs by propidium iodide staining flow cytometric analysis (reference value: 51.43 %); assay type: functional
MV4-11 [28] = assay: Induction of cell cycle arrest in human MV4-11 cells assessed as accumulation of cells at G2/M phase at 1.25 uM incubated for 24 hrs by propidium iodide staining flow cytometric analysis (reference value: 51.43 %); assay type: functional
MV4-11 [29] = assay: Induction of cell cycle arrest in human MV4-11 cells assessed as accumulation of cells at G2/M phase at 2.5 uM incubated for 24 hrs by propidium iodide staining flow cytometric analysis (reference value: 51.43 %); assay type: functional
MV4-11 [30] = assay: Induction of cell cycle arrest in human MV4-11 cells assessed as accumulation of cells at G2/M phase at 5 uM incubated for 24 hrs by propidium iodide staining flow cytometric analysis (reference value: 51.43 %); assay type: functional
MV4-11 [31] = assay: Induction of cell cycle arrest in human MV4-11 cells assessed as accumulation of cells at S phase at 0.3125 uM incubated for 24 hrs by propidium iodide staining flow cytometric analysis (reference value: 13.08 %); assay type: functional
MV4-11 [32] = assay: Induction of cell cycle arrest in human MV4-11 cells assessed as accumulation of cells at S phase at 0.625 uM incubated for 24 hrs by propidium iodide staining flow cytometric analysis (reference value: 13.08 %); assay type: functional
MV4-11 [33] = assay: Induction of cell cycle arrest in human MV4-11 cells assessed as accumulation of cells at S phase at 1.25 uM incubated for 24 hrs by propidium iodide staining flow cytometric analysis (reference value: 13.08 %); assay type: functional
MV4-11 [34] = assay: Induction of cell cycle arrest in human MV4-11 cells assessed as accumulation of cells at S phase at 2.5 uM incubated for 24 hrs by propidium iodide staining flow cytometric analysis (reference value: 13.08 %); assay type: functional
MV4-11 [35] = assay: Induction of cell cycle arrest in human MV4-11 cells assessed as accumulation of cells at S phase at 5 uM incubated for 24 hrs by propidium iodide staining flow cytometric analysis (reference value: 13.08 %); assay type: functional
MV4-11 [36] = assay: Antitumor activity against human MV4-11 cells xenografted in BALB/c mouse assessed as tumor growth inhibition relative to control; assay type: functional
Homo sapiens [37] = organism: Homo sapiens; settings: time 30.0 min
Homo sapiens [38] = organism: Homo sapiens; settings: time 30.0 min; remark: listed apart in the source
Homo sapiens [39] = organism: Homo sapiens; settings: time 30.0 min; remark: listed apart in the source
MV4-11 [40] = assay: cells; settings: Homo sapiens, MV4-11, 48 h
Description: Antiproliferative activity against human MV4-11 cells assessed as inhibition of cell growth incubated for 48 hrs by MTT assay

MOLM-13 = assay: cells; settings: Homo sapiens, MOLM-13, 48 h
Description: Antiproliferative activity against human MOLM-13 cells assessed as inhibition of cell growth incubated for 48 hrs by MTT assay

Jurkat = assay: cells; settings: Homo sapiens, 48 h
Description: Antiproliferative activity against human Jurkat cells assessed as inhibition of cell growth incubated for 48 hrs by MTT assay

MM1.S = assay: cells; settings: Homo sapiens, 48 h
Description: Antiproliferative activity against human MM1.S cells assessed as inhibition of cell growth incubated for 48 hrs by MTT assay

Structure (SMILES): Cc1sc2c(c1C)C(c1ccc(Cl)cc1)=N[C@@H](CC(=O)OC(C)(C)C)c1nnc(C)n1-2
- Activity (MV4-11 [1]): 6.52%
- Activity (MV4-11 [2]): 6.12%
- Activity (MV4-11 [3]): 80.59%
- Activity (MV4-11 [4]): 80.78%
- Activity (MV4-11 [5]): 88.78%
- Activity (MV4-11 [6]): 68.49%
- Activity (MV4-11 [7]): 67.33%
- Activity (MV4-11 [8]): 7.22%
- Activity (MV4-11 [9]): 6.72%
- Activity (MV4-11 [10]): 8.62%
- Activity (MV4-11 [11]): 4.15%
- Activity (MV4-11 [12]): 3.38%
- Activity (MV4-11 [13]): 4.03%
- Activity (MV4-11 [14]): 4.68%
- Activity (MV4-11 [15]): 5.04%
- Activity (MV4-11 [16]): 0.03%
- Activity (MV4-11 [17]): 0.03%
- Activity (MV4-11 [18]): 0%
- Activity (MV4-11 [19]): 0%
- Activity (MV4-11 [20]): 0.06%
- Activity (MV4-11 [21]): 46.96%
- Activity (MV4-11 [22]): 46.96%
- Activity (MV4-11 [23]): 62.73%
- Activity (MV4-11 [24]): 65.43%
- Activity (MV4-11 [25]): 64.98%
- Activity (MV4-11 [26]): 11.65%
- Activity (MV4-11 [27]): 11.65%
- Activity (MV4-11 [28]): 18.1%
- Activity (MV4-11 [29]): 11%
- Activity (MV4-11 [30]): 11.71%
- Activity (MV4-11 [31]): 40.75%
- Activity (MV4-11 [32]): 40.75%
- Activity (MV4-11 [33]): 19.09%
- Activity (MV4-11 [34]): 23.24%
- Activity (MV4-11 [35]): 22.85%
- TGI (MV4-11 [36]): 52.82%
- ΔTm (Homo sapiens [37]): 0 °C
- ΔTm (Homo sapiens [38]): 0 °C
- ΔTm (Homo sapiens [39]): 0 °C
- IC50 (MV4-11 [40]): 1.3 µM
- IC50 (MOLM-13): 1.73 µM
- IC50 (Jurkat): 16.3 µM
- IC50 (MM1.S): 2.84 µM
